Source: ChEMBL document CHEMBL4477270, “Design, synthesis, and protein methyltransferase activity of a unique set of constrained amine containing compounds” (Bioorg Med Chem Lett, 2016)

Tests used:
[1] = biological target: Histone-lysine N-methyltransferase SUV39H2 (Homo sapiens) (UniProt Q9H5I1); test: Inhibition of SUV39H2 (unknown origin) using biotin-labeled histone substrate assessed as residual activity at 50 uM in presence of [3H-Me]SAM by scintillation proximity assay relative to control
Histone-lysine N-methyltransferase SUV39H2 (Homo sapiens), sequence (Q9H5I1 whole entry, the tested form may be a part): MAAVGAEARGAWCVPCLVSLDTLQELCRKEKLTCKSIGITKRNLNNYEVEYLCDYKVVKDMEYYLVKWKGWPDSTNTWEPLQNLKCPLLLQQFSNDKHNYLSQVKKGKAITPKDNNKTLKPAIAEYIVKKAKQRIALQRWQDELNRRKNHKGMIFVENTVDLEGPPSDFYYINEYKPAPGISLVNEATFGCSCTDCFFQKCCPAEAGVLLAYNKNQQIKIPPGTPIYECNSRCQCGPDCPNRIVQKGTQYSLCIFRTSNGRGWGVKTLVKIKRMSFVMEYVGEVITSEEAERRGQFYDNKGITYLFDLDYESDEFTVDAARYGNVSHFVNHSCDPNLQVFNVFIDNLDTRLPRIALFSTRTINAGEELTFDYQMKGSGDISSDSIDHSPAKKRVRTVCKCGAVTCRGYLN

[2] = biological target: T1, N-lysine methyltransferase KMT5A (Homo sapiens) (UniProt Q9NQR1); test: Inhibition of SETD8 (unknown origin) using biotin-labeled histone H4 (1 to 24 residues) as substrate assessed as residual activity at 50 uM in presence of [3H-Me]SAM by scintillation proximity assay relative to control
T1 sequence (whole entry): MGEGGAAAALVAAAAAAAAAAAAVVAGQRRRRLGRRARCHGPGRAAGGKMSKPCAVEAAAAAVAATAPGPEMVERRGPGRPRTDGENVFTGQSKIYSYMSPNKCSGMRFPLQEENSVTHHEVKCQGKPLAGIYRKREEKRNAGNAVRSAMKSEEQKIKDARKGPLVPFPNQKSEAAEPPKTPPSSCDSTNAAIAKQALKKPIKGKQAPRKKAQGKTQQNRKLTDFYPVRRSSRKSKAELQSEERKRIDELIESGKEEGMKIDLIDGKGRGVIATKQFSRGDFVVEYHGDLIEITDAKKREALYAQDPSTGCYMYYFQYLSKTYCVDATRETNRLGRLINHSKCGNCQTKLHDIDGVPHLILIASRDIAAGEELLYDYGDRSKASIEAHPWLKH

[3] = biological target: Histone-lysine N-methyltransferase 2A (Homo sapiens) (UniProt Q03164); test: Inhibition of MLL1 (unknown origin) using biotin-labeled histone substrate assessed as residual activity at 50 uM in presence of [3H-Me]SAM by scintillation proximity assay relative to control
[4] = biological target: Protein N-lysine methyltransferase METTL21D (Homo sapiens) (UniProt Q9H867); test: Inhibition of METTL21D (unknown origin) using biotin-labeled histone substrate assessed as residual activity at 50 uM in presence of [3H-Me]SAM by scintillation proximity assay relative to control
Protein N-lysine methyltransferase METTL21D (Homo sapiens), sequence (Q9H867 whole entry): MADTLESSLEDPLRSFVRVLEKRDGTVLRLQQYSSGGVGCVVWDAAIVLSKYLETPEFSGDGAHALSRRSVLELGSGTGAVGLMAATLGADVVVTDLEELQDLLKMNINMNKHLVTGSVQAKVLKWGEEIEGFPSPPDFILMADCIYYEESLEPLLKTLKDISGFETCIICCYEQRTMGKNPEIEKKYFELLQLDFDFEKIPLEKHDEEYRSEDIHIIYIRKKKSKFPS

[5] = biological target: Histone-lysine N-methyltransferase, H3 lysine-79 specific (Homo sapiens) (UniProt Q8TEK3); test: Inhibition of DOT1L (unknown origin) using biotin-labeled histone substrate assessed as residual activity at 50 uM in presence of [3H-Me]SAM by scintillation proximity assay relative to control
Histone-lysine N-methyltransferase, H3 lysine-79 specific (Homo sapiens), sequence (Q8TEK3 whole entry, looked up): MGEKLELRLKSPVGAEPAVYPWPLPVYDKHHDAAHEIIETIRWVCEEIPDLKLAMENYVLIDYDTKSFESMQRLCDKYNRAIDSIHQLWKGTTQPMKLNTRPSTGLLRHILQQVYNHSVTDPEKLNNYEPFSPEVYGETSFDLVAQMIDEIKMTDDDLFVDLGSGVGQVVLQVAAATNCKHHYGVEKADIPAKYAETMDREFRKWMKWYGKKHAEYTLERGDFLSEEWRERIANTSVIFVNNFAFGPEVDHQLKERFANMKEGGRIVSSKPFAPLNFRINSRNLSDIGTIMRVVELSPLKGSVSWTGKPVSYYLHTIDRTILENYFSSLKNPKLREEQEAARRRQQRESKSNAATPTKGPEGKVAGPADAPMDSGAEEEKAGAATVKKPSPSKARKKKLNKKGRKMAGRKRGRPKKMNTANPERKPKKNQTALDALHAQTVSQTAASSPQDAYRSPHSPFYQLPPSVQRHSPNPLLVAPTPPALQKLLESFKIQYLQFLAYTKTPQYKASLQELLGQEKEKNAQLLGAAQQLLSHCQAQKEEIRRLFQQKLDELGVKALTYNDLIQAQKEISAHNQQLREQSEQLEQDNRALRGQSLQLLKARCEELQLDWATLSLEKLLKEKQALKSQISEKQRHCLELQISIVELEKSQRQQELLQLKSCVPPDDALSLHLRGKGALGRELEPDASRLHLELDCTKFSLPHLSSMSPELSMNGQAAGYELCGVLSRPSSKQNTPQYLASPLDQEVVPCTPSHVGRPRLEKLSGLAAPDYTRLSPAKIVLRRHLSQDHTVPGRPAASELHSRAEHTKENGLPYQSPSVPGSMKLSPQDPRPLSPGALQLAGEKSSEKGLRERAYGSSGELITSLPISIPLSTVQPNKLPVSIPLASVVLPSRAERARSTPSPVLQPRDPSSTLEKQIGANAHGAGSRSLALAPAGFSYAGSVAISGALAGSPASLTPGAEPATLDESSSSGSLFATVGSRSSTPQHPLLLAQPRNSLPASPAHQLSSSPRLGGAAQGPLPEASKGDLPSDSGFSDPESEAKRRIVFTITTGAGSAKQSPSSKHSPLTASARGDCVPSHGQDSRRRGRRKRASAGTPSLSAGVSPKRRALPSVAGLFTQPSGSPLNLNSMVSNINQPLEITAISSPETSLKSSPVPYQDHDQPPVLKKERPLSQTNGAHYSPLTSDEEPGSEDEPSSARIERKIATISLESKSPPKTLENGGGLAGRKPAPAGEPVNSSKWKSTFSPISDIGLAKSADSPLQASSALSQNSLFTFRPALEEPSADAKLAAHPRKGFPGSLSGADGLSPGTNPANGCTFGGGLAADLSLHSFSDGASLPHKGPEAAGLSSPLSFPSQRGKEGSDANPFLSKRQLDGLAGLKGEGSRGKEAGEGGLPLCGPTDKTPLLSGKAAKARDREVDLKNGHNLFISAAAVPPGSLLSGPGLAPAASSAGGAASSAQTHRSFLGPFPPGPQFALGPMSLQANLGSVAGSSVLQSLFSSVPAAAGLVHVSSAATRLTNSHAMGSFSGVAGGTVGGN

[6] = biological target: Protein N-lysine methyltransferase METTL21A (Homo sapiens) (UniProt Q8WXB1); test: Inhibition of METTL21A (unknown origin) using biotin-labeled histone substrate assessed as residual activity at 50 uM in presence of [3H-Me]SAM by scintillation proximity assay relative to control
Protein N-lysine methyltransferase METTL21A (Homo sapiens), sequence (Q8WXB1 whole entry): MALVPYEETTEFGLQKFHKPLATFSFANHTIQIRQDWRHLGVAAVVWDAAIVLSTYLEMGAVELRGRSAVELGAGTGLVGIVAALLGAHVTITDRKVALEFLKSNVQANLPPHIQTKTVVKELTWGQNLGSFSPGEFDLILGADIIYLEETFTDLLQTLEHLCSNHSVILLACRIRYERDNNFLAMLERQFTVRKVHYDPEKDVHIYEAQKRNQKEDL

[7] = biological target: Histone-lysine N-methyltransferase PRDM9 (Homo sapiens) (UniProt Q9NQV7); test: Inhibition of PRDM9 (unknown origin) using biotin-labeled histone substrate assessed as residual activity at 50 uM in presence of [3H-Me]SAM by scintillation proximity assay relative to control
Histone-lysine N-methyltransferase PRDM9 (Homo sapiens), sequence (Q9NQV7 whole entry): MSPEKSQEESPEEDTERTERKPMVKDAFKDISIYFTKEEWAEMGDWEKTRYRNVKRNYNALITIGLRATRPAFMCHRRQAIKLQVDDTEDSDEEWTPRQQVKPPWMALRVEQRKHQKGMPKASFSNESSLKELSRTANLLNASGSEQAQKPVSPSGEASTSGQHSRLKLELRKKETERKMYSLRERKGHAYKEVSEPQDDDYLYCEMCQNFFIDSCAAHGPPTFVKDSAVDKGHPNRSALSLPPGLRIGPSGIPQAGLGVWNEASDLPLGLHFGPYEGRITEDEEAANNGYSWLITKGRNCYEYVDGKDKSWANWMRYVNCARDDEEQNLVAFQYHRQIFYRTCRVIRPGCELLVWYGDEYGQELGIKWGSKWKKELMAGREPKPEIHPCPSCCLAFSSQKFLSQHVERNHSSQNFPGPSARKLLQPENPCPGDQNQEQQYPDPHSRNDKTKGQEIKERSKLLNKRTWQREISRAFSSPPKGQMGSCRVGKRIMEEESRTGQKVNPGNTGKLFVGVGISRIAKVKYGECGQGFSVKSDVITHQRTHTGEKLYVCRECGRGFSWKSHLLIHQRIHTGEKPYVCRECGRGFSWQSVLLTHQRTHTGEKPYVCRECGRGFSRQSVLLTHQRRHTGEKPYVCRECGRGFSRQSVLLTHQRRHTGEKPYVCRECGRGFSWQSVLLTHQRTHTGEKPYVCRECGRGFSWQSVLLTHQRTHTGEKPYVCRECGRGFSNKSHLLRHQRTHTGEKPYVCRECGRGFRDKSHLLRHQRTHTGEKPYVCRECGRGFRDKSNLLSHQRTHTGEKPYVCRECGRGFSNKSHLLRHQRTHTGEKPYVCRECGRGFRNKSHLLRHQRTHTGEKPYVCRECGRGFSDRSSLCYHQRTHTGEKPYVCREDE

[8] = biological target: Histone-lysine N-methyltransferase ASH1L (Homo sapiens) (UniProt Q9NR48); test: Inhibition of ASH1L (unknown origin) using biotin-labeled histone substrate assessed as residual activity at 50 uM in presence of [3H-Me]SAM by scintillation proximity assay relative to control
[9] = biological target: T2, Histone-lysine N-methyltransferase SUV39H1 (Homo sapiens) (UniProt O43463); test: Inhibition of SUV39H1 (unknown origin) using biotin-labeled histone substrate assessed as residual activity at 50 uM in presence of [3H-Me]SAM by scintillation proximity assay relative to control
T2 sequence (whole entry): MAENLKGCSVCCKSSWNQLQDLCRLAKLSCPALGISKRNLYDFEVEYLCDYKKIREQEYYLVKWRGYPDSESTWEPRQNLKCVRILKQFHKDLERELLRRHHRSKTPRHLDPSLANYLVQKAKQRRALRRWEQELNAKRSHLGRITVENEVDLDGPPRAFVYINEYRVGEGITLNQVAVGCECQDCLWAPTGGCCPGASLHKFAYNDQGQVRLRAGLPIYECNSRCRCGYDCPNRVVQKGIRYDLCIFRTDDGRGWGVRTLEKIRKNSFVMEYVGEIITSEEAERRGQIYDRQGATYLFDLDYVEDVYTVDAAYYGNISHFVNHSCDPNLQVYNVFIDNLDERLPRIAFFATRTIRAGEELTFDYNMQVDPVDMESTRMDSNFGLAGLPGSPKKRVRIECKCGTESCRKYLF

[10] = biological target: Histone-lysine N-methyltransferase 2C (Homo sapiens) (UniProt Q8NEZ4); test: Inhibition of MLL3 (unknown origin) using biotin-labeled histone substrate assessed as residual activity at 50 uM in presence of [3H-Me]SAM by scintillation proximity assay relative to control
[11] = biological target: Histone-lysine N-methyltransferase KMT5C (Homo sapiens) (UniProt Q86Y97); test: Inhibition of SUV420H2 (unknown origin) using biotin-labeled histone substrate assessed as residual activity at 50 uM in presence of [3H-Me]SAM by scintillation proximity assay relative to control
Histone-lysine N-methyltransferase KMT5C (Homo sapiens), sequence (Q86Y97 whole entry, looked up): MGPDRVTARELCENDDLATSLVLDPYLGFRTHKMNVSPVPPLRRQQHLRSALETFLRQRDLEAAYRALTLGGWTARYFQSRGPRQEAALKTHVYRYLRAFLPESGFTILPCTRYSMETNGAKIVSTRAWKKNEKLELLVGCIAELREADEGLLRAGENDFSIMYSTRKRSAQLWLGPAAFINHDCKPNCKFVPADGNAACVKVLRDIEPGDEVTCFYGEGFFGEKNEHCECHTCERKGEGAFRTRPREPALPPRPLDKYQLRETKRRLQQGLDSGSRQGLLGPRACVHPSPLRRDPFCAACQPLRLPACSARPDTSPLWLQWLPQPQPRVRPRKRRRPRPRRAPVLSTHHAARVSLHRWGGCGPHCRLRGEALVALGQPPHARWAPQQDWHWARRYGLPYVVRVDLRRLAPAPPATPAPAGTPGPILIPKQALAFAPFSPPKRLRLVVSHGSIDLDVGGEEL

Row | Structure (SMILES) | Activity [1] | Activity [2] | Activity [3] | Activity [4] | Activity [5] | Activity [6] | Activity [7] | Activity [8] | Activity [9] | Activity [10] | Activity [11]
1 | CN1CCC2(CCCN(C(=O)c3cccc(Br)c3)C2)C1 (centres undefined) | 84% | 106% | 104% | 98% | 97% | 105% | 103% | 103% | 103% | 94% | 96%
2 | O=C(c1cccc(Br)c1)N1C[C@@H]2CCN[C@@H]2C1 | 88% | 105% | 104% | 98% | 94% | 96% | 107% | 95% | 77% | 95% | 94%
3 | O=C(c1cccc(Br)c1)N1CCC2CNCC2C1 (centres undefined) | 95% | 103% | 108% | 113% | 94% | 100% | 108% | 103% | 92% | 104% | 104%
4 | O=C(c1cccc(Br)c1)N1C[C@H]2CCCN[C@H]2C1 | 107% | 90% | 107% | 102% | 89% | 94% | 108% | 104% | 103% | 116% | 98%
